IC50 and inhibition data for 9 compounds are collected here from ChEMBL document CHEMBL1126739, “Excursions in drug discovery” (J Med Chem, 1993).

Assay [1] concerns the target T1, Angiotensin-converting enzyme (Homo sapiens, UniProt P12821). Kind of assay: Inhibition of Angiotensin I converting enzyme.
The next assay deals with T2, Thermolysin (Bacillus thermoproteolyticus, UniProt P00800).
T2 sequence (P00800 whole entry): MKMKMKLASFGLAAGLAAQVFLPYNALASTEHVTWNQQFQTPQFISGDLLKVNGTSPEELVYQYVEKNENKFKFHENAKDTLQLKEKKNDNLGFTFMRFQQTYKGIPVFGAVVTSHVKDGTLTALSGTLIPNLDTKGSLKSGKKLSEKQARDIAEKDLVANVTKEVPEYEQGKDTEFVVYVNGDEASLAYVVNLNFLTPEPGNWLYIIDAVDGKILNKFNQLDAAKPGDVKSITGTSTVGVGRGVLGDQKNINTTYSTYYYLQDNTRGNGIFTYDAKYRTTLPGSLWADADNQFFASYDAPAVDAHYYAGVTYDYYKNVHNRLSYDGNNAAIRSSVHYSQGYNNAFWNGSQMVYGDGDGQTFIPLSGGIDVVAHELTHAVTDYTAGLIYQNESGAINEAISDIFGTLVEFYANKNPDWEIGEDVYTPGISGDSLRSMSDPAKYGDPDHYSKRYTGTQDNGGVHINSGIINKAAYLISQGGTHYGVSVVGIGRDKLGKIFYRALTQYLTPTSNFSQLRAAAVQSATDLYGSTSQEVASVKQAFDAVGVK
Kind of assay: Inhibition of metallopeptidase thermolysin.

Assay [2] concerns the target T3, Cholecystokinin receptor type A (Homo sapiens, UniProt P32238).
T3 sequence (P32238 whole entry): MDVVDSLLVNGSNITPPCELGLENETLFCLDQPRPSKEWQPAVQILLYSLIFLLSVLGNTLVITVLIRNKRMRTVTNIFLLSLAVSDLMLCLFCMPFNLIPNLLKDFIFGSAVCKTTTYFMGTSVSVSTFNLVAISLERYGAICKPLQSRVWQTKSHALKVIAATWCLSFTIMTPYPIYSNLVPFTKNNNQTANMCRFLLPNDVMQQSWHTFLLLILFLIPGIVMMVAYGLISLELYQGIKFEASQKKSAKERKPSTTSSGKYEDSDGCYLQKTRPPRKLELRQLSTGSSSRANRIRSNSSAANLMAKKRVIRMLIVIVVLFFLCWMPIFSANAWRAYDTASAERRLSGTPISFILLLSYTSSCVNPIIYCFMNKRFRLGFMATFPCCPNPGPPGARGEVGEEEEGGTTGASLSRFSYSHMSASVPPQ
Kind of assay: Antagonistic activity against cholecystokinin type A receptor. Format: functional.

The next assay deals with T4, Renin (Homo sapiens, UniProt P00797).
T4 sequence (P00797 whole entry): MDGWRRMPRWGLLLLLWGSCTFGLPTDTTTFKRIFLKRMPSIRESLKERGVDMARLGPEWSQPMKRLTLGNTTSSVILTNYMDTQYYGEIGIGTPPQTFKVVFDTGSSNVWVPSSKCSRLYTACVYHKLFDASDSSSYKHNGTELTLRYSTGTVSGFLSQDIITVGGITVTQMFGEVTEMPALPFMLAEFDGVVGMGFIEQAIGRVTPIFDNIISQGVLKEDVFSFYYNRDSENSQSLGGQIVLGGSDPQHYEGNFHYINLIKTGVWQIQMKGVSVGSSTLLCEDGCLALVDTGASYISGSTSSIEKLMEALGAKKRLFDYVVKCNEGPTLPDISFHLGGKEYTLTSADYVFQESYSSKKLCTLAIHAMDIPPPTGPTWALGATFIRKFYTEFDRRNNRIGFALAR
Kind of assay: Inhibition of human renin.

Assay [3] concerns the target T1, Angiotensin-converting enzyme. Kind of assay: Inhibition of Angiotensin I converting enzyme at 3.3 x 10 E -4M concentration.

T1 sequence (P12821 whole entry): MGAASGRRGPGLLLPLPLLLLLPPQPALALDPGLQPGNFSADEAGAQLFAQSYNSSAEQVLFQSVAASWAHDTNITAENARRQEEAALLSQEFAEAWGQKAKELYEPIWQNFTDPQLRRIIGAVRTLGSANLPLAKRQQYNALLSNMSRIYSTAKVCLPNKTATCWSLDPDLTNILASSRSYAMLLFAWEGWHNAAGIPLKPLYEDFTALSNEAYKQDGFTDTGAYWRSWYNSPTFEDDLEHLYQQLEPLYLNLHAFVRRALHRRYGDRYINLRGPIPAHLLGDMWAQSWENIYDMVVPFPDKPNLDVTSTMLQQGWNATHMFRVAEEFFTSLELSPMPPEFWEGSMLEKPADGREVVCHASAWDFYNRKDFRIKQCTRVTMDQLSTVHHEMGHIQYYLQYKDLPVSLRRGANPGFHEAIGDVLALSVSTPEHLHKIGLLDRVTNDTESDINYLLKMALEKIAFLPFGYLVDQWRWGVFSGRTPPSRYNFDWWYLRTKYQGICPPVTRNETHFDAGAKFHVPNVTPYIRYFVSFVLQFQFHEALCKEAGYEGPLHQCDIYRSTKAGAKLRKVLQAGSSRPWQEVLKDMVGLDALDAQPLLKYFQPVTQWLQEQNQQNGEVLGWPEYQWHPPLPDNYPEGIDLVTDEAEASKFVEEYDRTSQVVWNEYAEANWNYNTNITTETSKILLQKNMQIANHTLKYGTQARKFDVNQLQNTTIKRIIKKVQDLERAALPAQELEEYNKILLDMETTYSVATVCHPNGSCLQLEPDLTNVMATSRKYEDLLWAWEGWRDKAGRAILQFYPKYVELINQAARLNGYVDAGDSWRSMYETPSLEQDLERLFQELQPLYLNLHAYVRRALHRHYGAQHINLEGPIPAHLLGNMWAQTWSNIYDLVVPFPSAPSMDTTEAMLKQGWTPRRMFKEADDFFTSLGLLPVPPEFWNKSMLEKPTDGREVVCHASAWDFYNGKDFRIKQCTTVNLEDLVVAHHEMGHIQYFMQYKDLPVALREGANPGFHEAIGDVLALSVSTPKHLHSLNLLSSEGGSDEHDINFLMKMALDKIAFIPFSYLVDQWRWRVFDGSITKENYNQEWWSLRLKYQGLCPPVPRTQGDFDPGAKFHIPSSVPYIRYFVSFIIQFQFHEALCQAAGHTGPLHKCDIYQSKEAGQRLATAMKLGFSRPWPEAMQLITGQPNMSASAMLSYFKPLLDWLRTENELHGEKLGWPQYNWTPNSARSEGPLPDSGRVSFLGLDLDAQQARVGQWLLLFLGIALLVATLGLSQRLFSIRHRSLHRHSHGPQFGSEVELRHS

For `C[C@@H](CCC(=O)O)C(=O)N1CCCC1C(=O)O` (some centres undefined), 4.9 µM corresponded to half-maximal inhibition in assay [1] (IC50).

For the compound `CC(NP(=O)(O)CCc1ccccc1)C(=O)N1CCCC1C(=O)O` (centres undefined), half-maximal inhibition at Thermolysin (IC50) required 0.007 µM. This counts as single-digit nanomolar.

As to `CC(N[C@H](C)C(=O)N1CCC[C@H]1C(=O)O)C(=O)O` (some centres undefined), the IC50 (as a rule, the concentration at which inhibition is half-maximal) in assay [1] stood at 0.09 µM. Take `CC(CCC(=O)N1CCCC1C(=O)O)C(=O)O` (centres undefined): 260 µM corresponded to half-maximal inhibition in assay [1] (IC50). Compared with the last compound, the IC50 is about 2900-fold higher. As for `C[C@@H](NCC(=O)O)C(=O)N1CCC[C@H]1C(=O)O`, in assay [1], the IC50 turned out to be 2.4 µM. In assay [2], `CC(C)C[C@@H]1N[C@H]2N(C1=O)c1ccccc1[C@@]2(O)C[C@@H]1NC(=O)c2ccccc2-n2c1nc1ccccc1c2=O` [ASPERLICIN] had an IC50 of 1.4 µM.

`O=C(CCC(=O)N1CCCC1C(=O)O)NO` (centres undefined) came in with an IC50 in assay [1] of 50 µM. The compound `CC(C)(C)S(=O)(=O)C[C@@H](Cc1ccccc1)C(=O)NC1CSCCC[C@H](CN2CCOCC2)OC(=O)[C@H](O)[C@H](CC2CCCCC2)NC1=O` (some centres undefined) yielded an IC50 against Renin of 0.00035 µM. Regarding `O=C(O)CCC(=O)N1CCCC1C(=O)O` (centres undefined), in assay [3], the inhibition (as a rule, the share of the control response that was lost under treatment) turned out to be 43%.
